Converted amounts (≈) assume the structure as drawn.
Tests used:
Type in all cases: functional
Acinetobacter pittii [1] = test: Antibacterial activity against Acinetobacter genomosp. 3 isolates assessed as percent of resistance isolates by broth micro dilution
Acinetobacter pittii [2] = test: Antibacterial activity against Acinetobacter genomosp. 3 isolates by broth micro dilution
Acinetobacter pittii [3] = test: Antibacterial activity against Pulsotype I Acinetobacter genomosp. 3 isolate 10 containing IMP-1, OXA-58, ADC-18, ISAba1, ISAba3, IS1008, intI1 genetic elements by broth micro dilution
Acinetobacter pittii [4] = test: Antibacterial activity against Pulsotype B Acinetobacter genomosp. 3 isolate 8 containing IMP-1, OXA-58, ADC-18, ISAba1, ISAba3, IS1008, intI1 genetic elements by broth micro dilution
Acinetobacter pittii [5] = test: Antibacterial activity against Pulsotype J Acinetobacter genomosp. 3 isolate 15 containing IMP-1, OXA-58, ADC-18, ISAba1, ISAba3, IS1008, intI1 genetic elements by broth micro dilution
Acinetobacter pittii [6] = test: Antibacterial activity against Pulsotype K Acinetobacter genomosp. 3 isolate 6 containing IMP-1, OXA-58, ADC-18, ISAba1, ISAba3, IS1008, intI1 genetic elements by broth micro dilution
Acinetobacter pittii [7] = test: Antibacterial activity against Pulsotype M Acinetobacter genomosp. 3 isolate 5 containing IMP-1, OXA-58, ADC-43, ISAba2, ISAba3, IS1008, intI1 genetic elements by broth micro dilution
Acinetobacter pittii [8] = test: Antibacterial activity against Pulsotype L Acinetobacter genomosp. 3 isolate 2 containing IMP-8, OXA-58, ADC-43, ISAba1, ISAba3, IS1008, intI1 genetic elements by broth micro dilution
Acinetobacter pittii [9] = test: Antibacterial activity against Pulsotype I Acinetobacter genomosp. 3 isolate 11 containing IMP-1, OXA-58, ADC-18, ISAba1, ISAba3, IS1008, intI1 genetic elements by broth micro dilution
Acinetobacter pittii [10] = test: Antibacterial activity against Pulsotype D Acinetobacter genomosp. 3 isolate 18 containing IMP-1, OXA-58, ADC-18, ISAba1, ISAba3, repAcil, IS1008, intI1 genetic elements by broth micro dilution
Acinetobacter pittii [11] = test: Antibacterial activity against Pulsotype C Acinetobacter genomosp. 3 isolate 1 containing IMP-1, OXA-58, ADC-18, ISAba1, ISAba3, IS1008, intI1 genetic elements by broth micro dilution
Acinetobacter pittii [12] = test: Antibacterial activity against Pulsotype L Acinetobacter genomosp. 3 isolate 7 containing IMP-1, OXA-58, ADC-18, ISAba1, ISAba3, IS1008, intI1 genetic elements by broth micro dilution
Acinetobacter pittii [13] = test: Antibacterial activity against Pulsotype F Acinetobacter genomosp. 3 isolate 4 containing IMP-1, OXA-58, ADC-18, ISAba1, ISAba3, IS18, IS1008, intI1 genetic elements by broth micro dilution
Acinetobacter pittii [14] = test: Antibacterial activity against Pulsotype B Acinetobacter genomosp. 3 isolate 8 containing IMP-1, OXA-58, ADC-18, ISAba1, ISAba3, IS1008, intI1 genetic elements by agar dilution method
Acinetobacter pittii [15] = test: Antibacterial activity against Acinetobacter genomosp. 3 isolates by agar dilution method
Acinetobacter pittii [16] = test: Antibacterial activity against Pulsotype L Acinetobacter genomosp. 3 isolate 7 containing IMP-1, OXA-58, ADC-18, ISAba1, ISAba3, IS1008, intI1 genetic elements by agar dilution method
Acinetobacter pittii [17] = test: Antibacterial activity against Pulsotype I Acinetobacter genomosp. 3 isolate 11 containing IMP-1, OXA-58, ADC-18, ISAba1, ISAba3, IS1008, intI1 genetic elements by agar dilution method
Acinetobacter pittii [18] = test: Antibacterial activity against Pulsotype I Acinetobacter genomosp. 3 isolate 10 containing IMP-1, OXA-58, ADC-18, ISAba1, ISAba3, IS1008, intI1 genetic elements by agar dilution method
Acinetobacter pittii [19] = test: Antibacterial activity against Pulsotype C Acinetobacter genomosp. 3 isolate 1 containing IMP-1, OXA-58, ADC-18, ISAba1, ISAba3, IS1008, intI1 genetic elements by agar dilution method
Acinetobacter pittii [20] = test: Antibacterial activity against Acinetobacter genomosp. 3 isolates assessed as percent of resistance isolates by agar dilution method
Acinetobacter pittii [21] = test: Antibacterial activity against Pulsotype D Acinetobacter genomosp. 3 isolate 18 containing IMP-1, OXA-58, ADC-18, ISAba1, ISAba3, repAcil, IS1008, intI1 genetic elements by agar dilution method
Acinetobacter pittii [22] = test: Antibacterial activity against Pulsotype L Acinetobacter genomosp. 3 isolate 2 containing IMP-8, OXA-58, ADC-43, ISAba1, ISAba3, IS1008, intI1 genetic elements by agar dilution method
Acinetobacter pittii [23] = test: Antibacterial activity against Pulsotype J Acinetobacter genomosp. 3 isolate 15 containing IMP-1, OXA-58, ADC-18, ISAba1, ISAba3, IS1008, intI1 genetic elements by agar dilution method
Acinetobacter pittii [24] = test: Antibacterial activity against Pulsotype M Acinetobacter genomosp. 3 isolate 5 containing IMP-1, OXA-58, ADC-43, ISAba2, ISAba3, IS1008, intI1 genetic elements by agar dilution method
Acinetobacter pittii [25] = test: Antibacterial activity against Pulsotype K Acinetobacter genomosp. 3 isolate 6 containing IMP-1, OXA-58, ADC-18, ISAba1, ISAba3, IS1008, intI1 genetic elements by agar dilution method
Acinetobacter pittii [26] = test: Antibacterial activity against Pulsotype F Acinetobacter genomosp. 3 isolate 4 containing IMP-1, OXA-58, ADC-18, ISAba1, ISAba3, IS18, IS1008, intI1 genetic elements by agar dilution method
Enterobacteriaceae [27] = test: Antibacterial activity against Enterobacteriaceae assessed as susceptibility breakpoint by CLSI method
Enterobacteriaceae [28] = test: Antibacterial activity against Enterobacteriaceae assessed as resistant breakpoint by CLSI method
Enterobacteriaceae [29] = test: Antibacterial activity against Enterobacteriaceae assessed as intermediate breakpoint by CLSI method

Compound	Activity (Acinetobacter pittii [1])	MIC50 (Acinetobacter pittii [2])	MIC90 (Acinetobacter pittii [2])	MIC (Acinetobacter pittii [3])	MIC (Acinetobacter pittii [4])	MIC (Acinetobacter pittii [5])	MIC (Acinetobacter pittii [6])	MIC (Acinetobacter pittii [7])	MIC (Acinetobacter pittii [8])	MIC (Acinetobacter pittii [9])	MIC (Acinetobacter pittii [10])	MIC (Acinetobacter pittii [11])	MIC (Acinetobacter pittii [12])	MIC (Acinetobacter pittii [13])	also measured
COLISTIN	0%	1 µg/mL	2 µg/mL	–	–	–	–	–	–	–	–	–	–	–	–
NC[C@H]1O[C@H](O[C@H]2[C@H](O)[C@@H](O[C@H]3O[C@H](CO)[C@@H](O)[C@H](N)[C@H]3O)[C@H](N)C[C@@H]2N)[C@H](N)C[C@@H]1O [TOBRAMYCIN]	42.1%	8 µg/mL (≈ 17.1 µM)	≥ 16 µg/mL	–	–	–	–	–	–	–	–	–	–	–	–
O=C(O)c1cn(C2CC2)c2cc(N3CCNCC3)c(F)cc2c1=O [CIPROFLOXACIN]	5.3%	0.25 µg/mL (≈ 0.754 µM)	2 µg/mL (≈ 6.04 µM)	–	–	–	–	–	–	–	–	–	–	–	–
CC(C)(O/N=C(\C(=O)N[C@@H]1C(=O)N2C(C(=O)[O-])=C(C[n+]3ccccc3)CS[C@H]12)c1csc(N)n1)C(=O)O [CEFTAZIDIME]	68.4%	≥ 64 µg/mL	≥ 64 µg/mL	> 32 µg/mL	> 32 µg/mL	> 32 µg/mL	> 32 µg/mL	> 32 µg/mL	> 32 µg/mL	> 32 µg/mL	> 32 µg/mL	> 32 µg/mL	> 32 µg/mL	> 32 µg/mL	–
CC1(C)[C@H](C(=O)O)N2C(=O)C[C@H]2S1(=O)=O [SULBACTAM]	–	–	–	–	–	–	–	–	–	–	–	–	–	–	MIC (Acinetobacter pittii [14]): 2 µg/mL (≈ 8.57 µM); MIC50 (Acinetobacter pittii [15]): 2 µg/mL (≈ 8.57 µM); MIC90 (Acinetobacter pittii [15]): 4 µg/mL (≈ 17.1 µM); MIC (Acinetobacter pittii [16]): 4 µg/mL (≈ 17.1 µM); MIC (Acinetobacter pittii [17]): 4 µg/mL (≈ 17.1 µM); MIC (Acinetobacter pittii [18]): 4 µg/mL (≈ 17.1 µM); MIC (Acinetobacter pittii [19]): 4 µg/mL (≈ 17.1 µM); Activity (Acinetobacter pittii [20]): 0%; MIC (Acinetobacter pittii [21]): 4 µg/mL (≈ 17.1 µM); MIC (Acinetobacter pittii [22]): 4 µg/mL (≈ 17.1 µM); MIC (Acinetobacter pittii [23]): 4 µg/mL (≈ 17.1 µM); MIC (Acinetobacter pittii [24]): 2 µg/mL (≈ 8.57 µM); MIC (Acinetobacter pittii [25]): 4 µg/mL (≈ 17.1 µM); MIC (Acinetobacter pittii [26]): 2 µg/mL (≈ 8.57 µM)
CCN1CCN(C(=O)N[C@@H](C(=O)N[C@@H]2C(=O)N3[C@@H]2SC(C)(C)[C@@H]3C(=O)O)c2ccccc2)C(=O)C1=O [PIPERACILLIN]	63.2%	≥ 128 µg/mL	≥ 128 µg/mL	> 64 µg/mL	> 64 µg/mL	> 64 µg/mL	> 64 µg/mL	> 64 µg/mL	> 64 µg/mL	> 64 µg/mL	32 µg/mL (≈ 61.8 µM)	> 64 µg/mL	> 64 µg/mL	> 64 µg/mL	–
CO/N=C(\C(=O)N[C@@H]1C(=O)N2C(C(=O)[O-])=C(C[N+]3(C)CCCC3)CS[C@H]12)c1csc(N)n1 [CEFEPIME]	63.2%	≥ 32 µg/mL	≥ 32 µg/mL	> 16 µg/mL	> 16 µg/mL	> 16 µg/mL	> 16 µg/mL	> 16 µg/mL	> 16 µg/mL	> 16 µg/mL	> 16 µg/mL	> 16 µg/mL	> 16 µg/mL	> 16 µg/mL	–
NCC[C@H](O)C(=O)N[C@@H]1C[C@H](N)[C@@H](O[C@H]2O[C@H](CN)[C@@H](O)[C@H](O)[C@H]2O)[C@H](O)[C@H]1O[C@H]1O[C@H](CO)[C@@H](O)[C@H](N)[C@H]1O [AMIKACIN]	52.6%	32 µg/mL (≈ 54.6 µM)	≥ 64 µg/mL	–	–	–	–	–	–	–	–	–	–	–	–
C[C@H]1[C@H](NC(=O)/C(=N\OC(C)(C)C(=O)O)c2csc(N)n2)C(=O)N1S(=O)(=O)O [AZTREONAM]	94.7%	≥ 32 µg/mL	≥ 32 µg/mL	> 16 µg/mL	> 16 µg/mL	> 16 µg/mL	> 16 µg/mL	> 16 µg/mL	> 16 µg/mL	> 16 µg/mL	> 16 µg/mL	> 16 µg/mL	> 16 µg/mL	> 16 µg/mL	–
C[C@@H](O)[C@H]1C(=O)N2C(C(=O)O)=C(S[C@@H]3CN[C@H](C(=O)N(C)C)C3)[C@H](C)[C@H]12 [MEROPENEM]	57.9%	16 µg/mL (≈ 41.7 µM)	32 µg/mL (≈ 83.4 µM)	32 µg/mL (≈ 83.4 µM)	16 µg/mL (≈ 41.7 µM)	32 µg/mL (≈ 83.4 µM)	32 µg/mL (≈ 83.4 µM)	16 µg/mL (≈ 41.7 µM)	16 µg/mL (≈ 41.7 µM)	16 µg/mL (≈ 41.7 µM)	32 µg/mL (≈ 83.4 µM)	16 µg/mL (≈ 41.7 µM)	16 µg/mL (≈ 41.7 µM)	64 µg/mL (≈ 167 µM)	–
CN(C)c1cc(NC(=O)CNC(C)(C)C)c(O)c2c1C[C@H]1C[C@H]3[C@H](N(C)C)C(O)=C(C(N)=O)C(=O)[C@@]3(O)C(O)=C1C2=O [TIGECYCLINE]	0%	0.12 µg/mL (≈ 0.205 µM)	0.5 µg/mL (≈ 0.854 µM)	–	–	–	–	–	–	–	–	–	–	–	Activity (Enterobacteriaceae [27]): <=2 ug ml-1; Activity (Enterobacteriaceae [28]): >=8 ug ml-1; Activity (Enterobacteriaceae [29]): 4 µg/mL
C[C@@H](O)[C@H]1C(=O)N2C(C(=O)O)=C(SCCNC=N)C[C@H]12 [IMIPENEM ANHYDROUS]	57.9%	16 µg/mL (≈ 53.4 µM)	32 µg/mL (≈ 107 µM)	32 µg/mL (≈ 107 µM)	32 µg/mL (≈ 107 µM)	16 µg/mL (≈ 53.4 µM)	16 µg/mL (≈ 53.4 µM)	16 µg/mL (≈ 53.4 µM)	32 µg/mL (≈ 107 µM)	32 µg/mL (≈ 107 µM)	32 µg/mL (≈ 107 µM)	32 µg/mL (≈ 107 µM)	32 µg/mL (≈ 107 µM)	64 µg/mL (≈ 214 µM)	–
GENTAMICIN	52.6%	8 µg/mL	> 16 µg/mL	–	–	–	–	–	–	–	–	–	–	–	–
CO/N=C(\C(=O)N[C@@H]1C(=O)N2C(C(=O)O)=C(CSc3nc(=O)c(O)nn3C)CS[C@H]12)c1csc(N)n1 [CEFTRIAXONE]	63.2%	≥ 64 µg/mL	≥ 64 µg/mL	> 32 µg/mL	> 32 µg/mL	> 32 µg/mL	> 32 µg/mL	> 32 µg/mL	> 32 µg/mL	> 32 µg/mL	> 32 µg/mL	> 32 µg/mL	> 32 µg/mL	> 32 µg/mL	–
